{
  "source": "patent US10765114B2",
  "about": "“4-amino-6-(pyridyl and 2-substitutedphenyl)-picolinates and 6-amino-2-(pyridyl and 2-substitutedphenyl)-pyrimidine-4-carboxylates and their use as herbicides” (Dow AgroSciences LLC, priority 2013, dated 2020)",
  "key": {"[1]": {"test_system": "Key Broadleaf Weed and Crop Species", "test": "Post-Emergent Test II (Table 5)", "type": "in vivo", "conditions": "post-emergence, 336 h; for pest or weed control at 70 g/ha: application rate 70 (kg ai/ha; footnote: g ai/ha); for pest or weed control at 140 g/ha: application rate 140 (kg ai/ha; footnote: g ai/ha)", "summary_of_the_method": "(§1)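 Growth stage at treatment: first or second true leaf. Application: compound in acetone/DMSO diluted into an adjuvant-containing aqueous mix, sprayed at 187 L/ha at several rates. Assessment: visual 0-100% injury at 14 days against untreated plants.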"}, "[2]": {"test_system": "Key Grass and Sedge Weeds as well as Grass Crops", "test": "Post-Emergent Test II (Table 6)", "type": "in vivo", "conditions": "post-emergence, 336 h, 14 days after application; for pest or weed control at 70 g/ha: 70 g ai/ha; for pest or weed control at 140 g/ha: 140 g ai/ha", "summary_of_the_method": "as §1"}, "[3]": {"conditions": "Abutilon theophrasti, ABUTH: velvetleaf (Abutilon theophrasti), read-out: Visual Growth Reduction (%) 14 Days After Application ABUTH"}, "[4]": {"conditions": "Brassica napus, BRSSS: oilseed rape, canola (Brassica napus), read-out: Visual Growth Reduction (%) 14 Days After Application BRSSS"}, "[5]": {"conditions": "Chenopodium album, CHEAL: lambsquarters (Chenopodium album), read-out: Visual Growth Reduction (%) 14 Days After Application CHEAL"}, "[6]": {"conditions": "Euphorbia heterophylla, EPHHL: wild poinsettia (Euphorbia heterophylla), read-out: Visual Growth Reduction (%) 14 Days After Application EPHHL"}, "[7]": {"conditions": "Helianthus annuus, HELAN: sunflower (Helianthus annuus), read-out: Visual Growth Reduction (%) 14 Days After Application HELAN"}, "[8]": {"conditions": "Viola tricolor, VIOTR: wild pansy (Viola tricolor), read-out: Visual Growth Reduction (%) 14 Days After Application VIOTR"}, "[9]": {"conditions": "CYPSS, read-out: Visual Growth Reduction (%) 14 Days After Application CYPSS"}, "[10]": {"conditions": "DIGSA: crabgrass (Digitaria sanguinalis), read-out: Visual Growth Reduction (%) 14 Days After Application DIGSA"}, "[11]": {"conditions": "ECHSS, read-out: Visual Growth Reduction (%) 14 Days After Application ECHSS"}, "[12]": {"conditions": "ORYSS (crop), read-out: Visual Growth Reduction (%) 14 Days After Application ORYSS"}, "[13]": {"conditions": "SETFA: giant foxtail (Setaria faberi), read-out: Visual Growth Reduction (%) 14 Days After Application SETFA"}, "[14]": {"conditions": "SORVU: grain sorghum (Sorghum vulgare), read-out: Visual Growth Reduction (%) 14 Days After Application SORVU"}, "[15]": {"conditions": "TRZSS (crop), read-out: Visual Growth Reduction (%) 14 Days After Application TRZSS"}, "[16]": {"conditions": "ZEAMX: maize, corn (Zea mays), read-out: Visual Growth Reduction (%) 14 Days After Application ZEAMX"}},
  "note": "Where two headings read alike, the source gives them in different places.",
  "data": [
    {"compound": "COC(=O)c1nc(-c2ccc(Cl)nc2F)nc(N)c1Cl", "note": "[Compound 94]", "values": [
      {"measurement": "pest or weed control at 70 g/ha", "setting": "[1]; [3]", "result": "0 to 29", "unit": "%"},
      {"measurement": "pest or weed control at 140 g/ha", "setting": "[1]; [3]", "result": "30 to 44", "unit": "%"},
      {"measurement": "pest or weed control at 70 g/ha", "setting": "[1]; [4]", "result": "0 to 29", "unit": "%"},
      {"measurement": "pest or weed control at 140 g/ha", "setting": "[1]; [4]", "result": "0 to 29", "unit": "%"},
      {"measurement": "pest or weed control at 70 g/ha", "setting": "[1]; [5]", "result": "60 to 74", "unit": "%"},
      {"measurement": "pest or weed control at 140 g/ha", "setting": "[1]; [5]", "result": "75 to 84", "unit": "%"},
      {"measurement": "pest or weed control at 70 g/ha", "setting": "[1]; [6]", "result": "0 to 29", "unit": "%"},
      {"measurement": "pest or weed control at 140 g/ha", "setting": "[1]; [6]", "result": "0 to 29", "unit": "%"},
      {"measurement": "pest or weed control at 70 g/ha", "setting": "[1]; [7]", "result": "30 to 44", "unit": "%"},
      {"measurement": "pest or weed control at 140 g/ha", "setting": "[1]; [7]", "result": "30 to 44", "unit": "%"},
      {"measurement": "pest or weed control at 70 g/ha", "setting": "[1]; [8]", "result": "0 to 29", "unit": "%"},
      {"measurement": "pest or weed control at 140 g/ha", "setting": "[1]; [8]", "result": "0 to 29", "unit": "%"},
      {"measurement": "pest or weed control at 70 g/ha", "setting": "[2]; [9]", "result": "0 to 29", "unit": "%"},
      {"measurement": "pest or weed control at 140 g/ha", "setting": "[2]; [9]", "result": "0 to 29", "unit": "%"},
      {"measurement": "pest or weed control at 70 g/ha", "setting": "[2]; [10]", "result": "0 to 29", "unit": "%"},
      {"measurement": "pest or weed control at 140 g/ha", "setting": "[2]; [10]", "result": "0 to 29", "unit": "%"},
      {"measurement": "pest or weed control at 70 g/ha", "setting": "[2]; [11]", "result": "0 to 29", "unit": "%"},
      {"measurement": "pest or weed control at 140 g/ha", "setting": "[2]; [11]", "result": "0 to 29", "unit": "%"},
      {"measurement": "pest or weed control at 70 g/ha", "setting": "[2]; [12]", "result": "0 to 29", "unit": "%"},
      {"measurement": "pest or weed control at 140 g/ha", "setting": "[2]; [12]", "result": "0 to 29", "unit": "%"},
      {"measurement": "pest or weed control at 70 g/ha", "setting": "[2]; [13]", "result": "0 to 29", "unit": "%"},
      {"measurement": "pest or weed control at 140 g/ha", "setting": "[2]; [13]", "result": "0 to 29", "unit": "%"},
      {"measurement": "pest or weed control at 70 g/ha", "setting": "[2]; [14]", "result": "0 to 29", "unit": "%"},
      {"measurement": "pest or weed control at 140 g/ha", "setting": "[2]; [14]", "result": "0 to 29", "unit": "%"},
      {"measurement": "pest or weed control at 70 g/ha", "setting": "[2]; [15]", "result": "0 to 29", "unit": "%"},
      {"measurement": "pest or weed control at 140 g/ha", "setting": "[2]; [15]", "result": "0 to 29", "unit": "%"},
      {"measurement": "pest or weed control at 70 g/ha", "setting": "[2]; [16]", "result": "0 to 29", "unit": "%"},
      {"measurement": "pest or weed control at 140 g/ha", "setting": "[2]; [16]", "result": "0 to 29", "unit": "%"},
      {"measurement": "melting point", "result": "192 to 195", "unit": "°C"}
    ]}
  ]
}
